Test results from PMC6151429 (Molecules : A Journal of Synthetic Chemistry and Natural …, 2017).
“And” between values parts separate entries of the source, which are not always exact repeats. Equal values may be shown once. Read-outs that look alike come from different tables or passages of the source.

What was measured:
[1] = target: T1, Electric eel acetylcholinesterase (AChE) (Electrophorus electricus, UniProt O42275); assay: biochemical; details: for IC50: electric eel AChE, mean ± SEM of triplicate experiments; for SI, selective index (BChE/AChE): calculated from IC50 of BChE/AChE
T1 construct: purchased Sigma-Aldrich Co. (St. Louis, MO, USA)
T1 sequence (O42275 24-633): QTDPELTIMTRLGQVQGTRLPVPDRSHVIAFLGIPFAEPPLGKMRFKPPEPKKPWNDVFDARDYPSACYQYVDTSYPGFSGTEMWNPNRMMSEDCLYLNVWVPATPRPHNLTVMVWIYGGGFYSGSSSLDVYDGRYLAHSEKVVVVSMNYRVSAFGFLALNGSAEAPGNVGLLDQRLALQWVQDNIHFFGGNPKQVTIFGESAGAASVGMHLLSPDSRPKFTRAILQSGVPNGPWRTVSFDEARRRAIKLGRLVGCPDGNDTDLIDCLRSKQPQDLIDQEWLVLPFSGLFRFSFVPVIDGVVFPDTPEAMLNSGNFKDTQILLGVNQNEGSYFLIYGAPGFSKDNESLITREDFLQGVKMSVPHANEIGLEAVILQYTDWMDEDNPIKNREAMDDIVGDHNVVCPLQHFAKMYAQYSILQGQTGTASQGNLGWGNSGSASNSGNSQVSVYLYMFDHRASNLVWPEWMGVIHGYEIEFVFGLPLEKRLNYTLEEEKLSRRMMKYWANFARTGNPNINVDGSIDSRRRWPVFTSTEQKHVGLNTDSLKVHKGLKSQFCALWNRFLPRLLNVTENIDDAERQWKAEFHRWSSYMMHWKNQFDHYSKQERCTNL
Description: (§1) Electric eel acetylcholinesterase (AChE, EC3.1.1.7), horse serum butyrylcholinesterase (BChE, EC 3.1.1.8), acetylthiocholine iodide (ACh), butyrylthioline chloride (BCh), 5,5′-dithobis [2-nitrobenzoic acid] […] The BACE1 FREF assay kit (β-secretase) was purchased from Pan Vera Co. (Madison, WI, USA). ONOO^− was purchased from Molecular Probes Cayman (Ann Arbor, MI, USA). All other chemicals and solvents used were purchased from E. Merck, Fluka, or Sigma- Aldrich, unless otherwise stated.
The inhibitory activity of the isolated coumarins toward ChE was measured using the spectrophotometric method developed by Ellman et al.. ACh and BCh were used as substrates to assay the inhibition of AChE and BChE, respectively. Each reaction mixture consisted of 140 µL sodium phosphate buffer (pH 8.0), 20 µL of test sample solution, and 20 µL of either AChE or BChE solution, which were then combined and incubated for 15 min at room temperature. […] Reactions were initiated upon addition of 10 µL of DTNB and 10 µL of either ACh or BCh. Enzymatic hydrolysis, mediated by AChE or BChE, was monitored according to the formation of yellow 5-thio-2-nitrobenzoate anions at 412 nm for 15 min, which were generated by the reaction of DTNB with thiocholine released from ACh or BCh. All reactions were performed in 96-well plates in triplicate, and recorded using a microplate spectrophotometer (Molecular Devices, Sunnyvale, CA, USA).

human recombinant BACE1 [2] = target: T2, human recombinant BACE1 (Homo sapiens, UniProt P56817); assay: In vitro BACE1 FRET enzyme assay; assay type: biochemical
T2 construct: purchased PanVera Co. (Madison, WI, USA)
T2 sequence (P56817 46-501): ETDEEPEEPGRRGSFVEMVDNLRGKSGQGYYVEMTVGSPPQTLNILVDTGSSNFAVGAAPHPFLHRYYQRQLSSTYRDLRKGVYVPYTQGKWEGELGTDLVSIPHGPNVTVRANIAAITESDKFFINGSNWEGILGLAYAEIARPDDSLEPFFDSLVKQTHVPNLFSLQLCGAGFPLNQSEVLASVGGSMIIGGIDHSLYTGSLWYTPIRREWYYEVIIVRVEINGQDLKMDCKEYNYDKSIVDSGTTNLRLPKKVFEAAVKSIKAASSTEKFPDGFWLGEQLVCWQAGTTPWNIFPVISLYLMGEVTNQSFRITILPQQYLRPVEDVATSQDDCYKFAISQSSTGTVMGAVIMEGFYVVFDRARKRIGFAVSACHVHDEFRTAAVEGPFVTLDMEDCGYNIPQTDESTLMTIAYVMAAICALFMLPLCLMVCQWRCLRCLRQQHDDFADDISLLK
Procedure: A BACE1 fluorescence resonance energy transfer (FRET) assay kit (β-secretase, human recombinant) was purchased from PanVera Co. (Madison, WI, USA). The assay was carried out according to the provided manual with slight modifications, as described in a previous study.

human recombinant BACE1 [3] = target: T2, human recombinant BACE1; assay: Kinetics of BACE1 inhibition (Lineweaver–Burk and Dixon plots); assay type: biochemical; details: for BACE1 inhibition type: determined using Dixon and Lineweaver–Burk plots; for Ki: determined using a Dixon plot, substrate 750, 375, 250 nM, read-out: BACE1 inhibition constant (Ki)
Procedure: Complementary kinetic methods were employed: Lineweaver–Burk and Dixon plots. The mechanism of BACE1 inhibition was evaluated by monitoring the effects of different concentrations of substrate (750, 375, and 250 nM). The test concentrations of 2 in BACE1 inhibition kinetic experiments were 0, 0.4, 2.0, and 10 µM, while those for 3 were 0, 25, 50, and 100 µM. Inhibition constants (Ki) were determined by interpreting the Dixon plot, where the value on the x-axis represents Ki.

[4] = system: ONOO−-mediated tyrosine nitration of BSA; assay: Inhibition of ONOO−-mediated protein tyrosine nitration (Western blot, 3-nitrotyrosine antibody); assay type: biochemical; details: pretreatment at 12.5–100 μM
Procedure: To determine the inhibitory effect of 2 against ONOO^−-induced tyrosine nitration, Western blot analysis was performed using a 3-nitrotyrosine antibody.
Figure 5 Effect of 2 on nitration of BSA by ONOO^−. A mixture of the compound and BSA was incubated at 25 °C for 10 min. After incubation of ONOO^− at 25 °C for 10 min, reactants were resolved by electrophoresis in a 10% SDS-polyacrylamide gel.
We evaluated ONOO^−-mediated protein tyrosine nitration using the method of Ali et al., with slight modifications. The tested concentration range of 2 was 12.5–100 µM.

[5] = target: T3, horse serum butyrylcholinesterase (BChE) (Equus caballus, UniProt P81908); assay: In vitro ChE enzyme assay (Ellman), BChE; assay type: biochemical; details: mean ± SEM of triplicate experiments
T3 construct: horse serum butyrylcholinesterase (BChE, EC 3.1.1.8); purchased Sigma-Aldrich Co. (St. Louis, MO, USA); host or cells: horse serum
T3 sequence (P81908 whole entry): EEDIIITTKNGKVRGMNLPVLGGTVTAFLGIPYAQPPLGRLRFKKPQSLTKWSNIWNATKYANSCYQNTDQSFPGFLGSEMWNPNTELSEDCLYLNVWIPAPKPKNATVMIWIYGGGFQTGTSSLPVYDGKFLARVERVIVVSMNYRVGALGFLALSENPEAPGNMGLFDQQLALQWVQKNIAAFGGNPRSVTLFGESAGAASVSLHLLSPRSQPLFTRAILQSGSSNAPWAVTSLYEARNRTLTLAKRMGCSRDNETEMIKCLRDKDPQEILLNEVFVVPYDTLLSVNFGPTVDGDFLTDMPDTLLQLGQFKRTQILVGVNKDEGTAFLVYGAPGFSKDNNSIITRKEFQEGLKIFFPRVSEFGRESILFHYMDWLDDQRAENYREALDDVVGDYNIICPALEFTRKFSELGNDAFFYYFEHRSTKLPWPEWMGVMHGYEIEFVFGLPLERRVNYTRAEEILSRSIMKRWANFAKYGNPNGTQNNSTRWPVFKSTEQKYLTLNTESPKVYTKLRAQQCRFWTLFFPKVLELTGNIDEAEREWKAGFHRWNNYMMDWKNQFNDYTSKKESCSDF
Description: as §1
The inhibitory activity of the isolated coumarins toward ChE was measured using the spectrophotometric method developed by Ellman et al.. ACh and BCh were used as substrates to assay the inhibition of AChE and BChE, respectively. Each reaction mixture consisted of 140 µL sodium phosphate buffer (pH 8.0), 20 µL of test sample solution, and 20 µL of either AChE or BChE solution, which were then combined and incubated for 15 min at room temperature. […] Enzymatic hydrolysis, mediated by AChE or BChE, was monitored according to the formation of yellow 5-thio-2-nitrobenzoate anions at 412 nm for 15 min, which were generated by the reaction of DTNB with thiocholine released from ACh or BCh. All reactions were performed in 96-well plates in triplicate, and recorded using a microplate spectrophotometer (Molecular Devices, Sunnyvale, CA, USA).

[6] = human recombinant BACE1, mean ± SEM of triplicate experiments, read-out: IC50 BACE1

Row | Structure (SMILES) | IC50 ([1]; IC50 AChE) [µM] | IC50 (human recombinant BACE1 [2]) [µM] | BACE1 inhibition type (human recombinant BACE1 [3]) | Ki (human recombinant BACE1 [3]) [µM] | Inhibition of ONOO−-mediated tyrosine nitration [4] | SI, selective index (BChE/AChE) [1] | IC50 ([1]; read-out: IC50 AChE) | IC50 [5] | IC50 (human recombinant BACE1 [2]; [6]) [µM]
1 | COc1ccc2cc3[n+](cc2c1OC)CCc1cc2c(cc1-3)OCO2 [Berberine, berberine, reference compound] | < 0.32 | – | – | – | – | – | – | – | –
2 | O=c1ccc2ccc(O)cc2o1 [Compound 1, umbelliferone] | – | 169 ± 2.17 | – | – | – | – | – | – | –
3 | O=Cc1cc2ccc(=O)oc2cc1O [Compound 2, 6-formyl umbelliferone] | – | – | noncompetitive-type inhibition | 2.27 | significant dose-dependent inhibition | 1.67 | 16.7 to 19.1 µM and 16.7 µM | 27.9 to 87.7 µM and 27.9 µM | 1.31 ± 0.01
4 | O=Cc1c(O)ccc2ccc(=O)oc12 [Compound 3, 8-formyl umbelliferone] | – | – | noncompetitive-type inhibition | 22.2 | – | 4.58 | 16.7 to 19.1 µM and 19.1 µM | 27.9 to 87.7 µM and 87.7 µM | 39.82 ± 0.31
